# Data published in patent publication US11083725B2 (priority 2014, dated 2021).
# Test system: NHBE cells
# Assay: Biolog metabolic array: substrate use by NHBE cells with or without CA09 infection
# Format: cell-based, human
# Conditions: for Substrate use, 590 nm absorbance normalized to zero hour, 0 hr: Biolog PMM2, 0 hr; for Substrate use, 590 nm absorbance normalized to zero hour, 1 hr: Biolog PMM2, 1 hr; for Substrate use, 590 nm absorbance normalized to zero hour, 5 hr: Biolog PMM2, 5 hr; for Substrate use, 590 nm absorbance normalized to zero hour, 7 hr: Biolog PMM2, 7 hr
# [1] = Control (uninfected) NHBE cells
# [2] = Virus (CA09, MOI 1) infected NHBE cells
# [3] = Virus (CA09-infected, MOI 1) NHBE cells
# [4] = Virus (CA09-infected NHBE cells, MOI 1)
# [5] = Virus: CA09-infected NHBE cells, MOI 1, Biolog PMM2
compound,measurement,setting,value
CC(=O)N[C@H]1[C@H]([C@H](O)[C@H](O)CO)OC(O)(C(=O)O)C[C@@H]1O (stereo partly shown) [n-acetyl-neuraminic acid],"590 nm absorbance normalized to zero hour (substrate use), 0 hr",[1],1.00
same,"590 nm absorbance normalized to zero hour (substrate use), 1 hr",[1],0.19
same,"590 nm absorbance normalized to zero hour (substrate use), 2 hr",[1],0.21
same,"590 nm absorbance normalized to zero hour (substrate use), 3 hr",[1],0.19
same,"590 nm absorbance normalized to zero hour (substrate use), 4 hr",[1],0.20
same,"590 nm absorbance normalized to zero hour (substrate use), 6 hr",[1],0.36
same,"590 nm absorbance normalized to zero hour (substrate use), 8 hr",[1],0.27
same,"590 nm absorbance normalized to zero hour (substrate use), 9 hr",[1],0.29
same,"590 nm absorbance normalized to zero hour (substrate use), 10 hr",[1],0.32
same,"590 nm absorbance normalized to zero hour (substrate use), 11 hr",[1],0.25
same,"Substrate use, 590 nm absorbance normalized to zero hour, 0 hr",[1],1.00
same,"Substrate use, 590 nm absorbance normalized to zero hour, 1 hr",[1],0.19
same,"Substrate use, 590 nm absorbance normalized to zero hour, 5 hr",[1],0.23
same,"Substrate use, 590 nm absorbance normalized to zero hour, 7 hr",[1],0.26
same,"Substrate use, 590 nm absorbance normalized to zero hour, 0 hr",[2],1.00
same,"Substrate use, 590 nm absorbance normalized to zero hour, 1 hr",[2],4.77
same,"Substrate use, 590 nm absorbance normalized to zero hour, 5 hr",[2],1.43
same,"Substrate use, 590 nm absorbance normalized to zero hour, 7 hr",[2],1.58
same,"590 nm absorbance normalized to zero hour (substrate use), 0 hr",[3],1.00
same,"590 nm absorbance normalized to zero hour (substrate use), 1 hr",[3],4.77
same,"590 nm absorbance normalized to zero hour (substrate use), 2 hr",[3],3.35
same,"590 nm absorbance normalized to zero hour (substrate use), 3 hr",[3],3.95
same,"590 nm absorbance normalized to zero hour (substrate use), 4 hr",[3],3.57
same,"590 nm absorbance normalized to zero hour (substrate use), 6 hr",[3],2.71
same,"590 nm absorbance normalized to zero hour (substrate use), 8 hr",[3],1.60
same,"590 nm absorbance normalized to zero hour (substrate use), 9 hr",[3],1.61
same,"590 nm absorbance normalized to zero hour (substrate use), 10 hr",[3],1.82
same,"590 nm absorbance normalized to zero hour (substrate use), 11 hr",[3],2.21
Chondroitin Sulfate C,"590 nm absorbance normalized to zero hour (substrate use), 0 hr",[1],1.00
same,"590 nm absorbance normalized to zero hour (substrate use), 1 hr",[1],1.60
same,"590 nm absorbance normalized to zero hour (substrate use), 2 hr",[1],1.94
same,"590 nm absorbance normalized to zero hour (substrate use), 3 hr",[1],2.10
same,"590 nm absorbance normalized to zero hour (substrate use), 4 hr",[1],2.19
same,"590 nm absorbance normalized to zero hour (substrate use), 6 hr",[1],3.28
same,"590 nm absorbance normalized to zero hour (substrate use), 8 hr",[1],2.56
same,"590 nm absorbance normalized to zero hour (substrate use), 9 hr",[1],2.92
same,"590 nm absorbance normalized to zero hour (substrate use), 10 hr",[1],3.00
same,"590 nm absorbance normalized to zero hour (substrate use), 11 hr",[1],2.49
same,"Substrate use, 590 nm absorbance normalized to zero hour, 0 hr",[1],1.00
same,"Substrate use, 590 nm absorbance normalized to zero hour, 1 hr",[1],1.60
same,"Substrate use, 590 nm absorbance normalized to zero hour, 5 hr",[1],2.50
same,"Substrate use, 590 nm absorbance normalized to zero hour, 7 hr",[1],2.63
same,"590 nm absorbance normalized to zero hour (substrate use), 0 hr",[4],1.00
same,"590 nm absorbance normalized to zero hour (substrate use), 1 hr",[4],1.22
same,"590 nm absorbance normalized to zero hour (substrate use), 2 hr",[4],1.41
same,"590 nm absorbance normalized to zero hour (substrate use), 3 hr",[4],1.45
same,"590 nm absorbance normalized to zero hour (substrate use), 5 hr",[4],1.62
same,"590 nm absorbance normalized to zero hour (substrate use), 6 hr",[4],1.61
same,"590 nm absorbance normalized to zero hour (substrate use), 7 hr",[4],1.63
same,"590 nm absorbance normalized to zero hour (substrate use), 8 hr",[4],1.65
same,"590 nm absorbance normalized to zero hour (substrate use), 9 hr",[4],1.72
same,"590 nm absorbance normalized to zero hour (substrate use), 10 hr",[4],1.69
same,"590 nm absorbance normalized to zero hour (substrate use), 11 hr",[4],1.75
same,"590 nm absorbance normalized to zero hour (substrate use), 0 hr",[5],1.00
same,"590 nm absorbance normalized to zero hour (substrate use), 1 hr",[5],1.22
same,"590 nm absorbance normalized to zero hour (substrate use), 2 hr",[5],1.41
same,"590 nm absorbance normalized to zero hour (substrate use), 3 hr",[5],1.45
same,"590 nm absorbance normalized to zero hour (substrate use), 5 hr",[5],1.62
same,"590 nm absorbance normalized to zero hour (substrate use), 6 hr",[5],1.61
same,"590 nm absorbance normalized to zero hour (substrate use), 7 hr",[5],1.63
same,"590 nm absorbance normalized to zero hour (substrate use), 8 hr",[5],1.65
same,"590 nm absorbance normalized to zero hour (substrate use), 9 hr",[5],1.72
same,"590 nm absorbance normalized to zero hour (substrate use), 10 hr",[5],1.69
same,"590 nm absorbance normalized to zero hour (substrate use), 11 hr",[5],1.75
Dextrin,"590 nm absorbance normalized to zero hour (substrate use), 0 hr",[1],1.00
same,"590 nm absorbance normalized to zero hour (substrate use), 2 hr",[1],3.19
same,"590 nm absorbance normalized to zero hour (substrate use), 3 hr",[1],4.01
same,"590 nm absorbance normalized to zero hour (substrate use), 6 hr",[1],4.79
same,"590 nm absorbance normalized to zero hour (substrate use), 8 hr",[1],8.34
same,"590 nm absorbance normalized to zero hour (substrate use), 9 hr",[1],9.71
same,"590 nm absorbance normalized to zero hour (substrate use), 10 hr",[1],8.28
same,"590 nm absorbance normalized to zero hour (substrate use), 11 hr",[1],8.41
same,"Substrate use, 590 nm absorbance normalized to zero hour, 0 hr",[1],1.00
same,"Substrate use, 590 nm absorbance normalized to zero hour, 5 hr",[1],6.14
same,"Substrate use, 590 nm absorbance normalized to zero hour, 7 hr",[1],7.35
same,"590 nm absorbance normalized to zero hour (substrate use), 0 hr",[3],1.00
same,"590 nm absorbance normalized to zero hour (substrate use), 1 hr",[3],2.14
same,"590 nm absorbance normalized to zero hour (substrate use), 2 hr",[3],2.79
same,"590 nm absorbance normalized to zero hour (substrate use), 3 hr",[3],3.43
same,"590 nm absorbance normalized to zero hour (substrate use), 4 hr",[3],3.84
same,"590 nm absorbance normalized to zero hour (substrate use), 5 hr",[3],4.91
same,"590 nm absorbance normalized to zero hour (substrate use), 6 hr",[3],5.56
same,"590 nm absorbance normalized to zero hour (substrate use), 7 hr",[3],6.11
same,"590 nm absorbance normalized to zero hour (substrate use), 8 hr",[3],6.72
same,"590 nm absorbance normalized to zero hour (substrate use), 9 hr",[3],7.89
same,"590 nm absorbance normalized to zero hour (substrate use), 10 hr",[3],8.23
same,"590 nm absorbance normalized to zero hour (substrate use), 11 hr",[3],6.40
same,"590 nm absorbance normalized to zero hour (substrate use), 0 hr",[5],1.00
same,"590 nm absorbance normalized to zero hour (substrate use), 1 hr",[5],2.14
same,"590 nm absorbance normalized to zero hour (substrate use), 2 hr",[5],2.79
same,"590 nm absorbance normalized to zero hour (substrate use), 3 hr",[5],3.43
same,"590 nm absorbance normalized to zero hour (substrate use), 4 hr",[5],3.84
same,"590 nm absorbance normalized to zero hour (substrate use), 5 hr",[5],4.91
same,"590 nm absorbance normalized to zero hour (substrate use), 6 hr",[5],5.56
same,"590 nm absorbance normalized to zero hour (substrate use), 7 hr",[5],6.11
same,"590 nm absorbance normalized to zero hour (substrate use), 8 hr",[5],6.72
same,"590 nm absorbance normalized to zero hour (substrate use), 9 hr",[5],7.89
same,"590 nm absorbance normalized to zero hour (substrate use), 10 hr",[5],8.23
same,"590 nm absorbance normalized to zero hour (substrate use), 11 hr",[5],6.40
Glycogen,"590 nm absorbance normalized to zero hour (substrate use), 0 hr",[1],1.00
same,"590 nm absorbance normalized to zero hour (substrate use), 1 hr",[1],1.61
same,"590 nm absorbance normalized to zero hour (substrate use), 4 hr",[1],2.80
same,"590 nm absorbance normalized to zero hour (substrate use), 6 hr",[1],4.32
same,"590 nm absorbance normalized to zero hour (substrate use), 8 hr",[1],4.85
same,"590 nm absorbance normalized to zero hour (substrate use), 9 hr",[1],4.87
same,"590 nm absorbance normalized to zero hour (substrate use), 10 hr",[1],4.50
same,"590 nm absorbance normalized to zero hour (substrate use), 11 hr",[1],5.01
same,"Substrate use, 590 nm absorbance normalized to zero hour, 0 hr",[1],1.00
same,"Substrate use, 590 nm absorbance normalized to zero hour, 1 hr",[1],1.61
same,"Substrate use, 590 nm absorbance normalized to zero hour, 3 hr","Control (uninfected) NHBE cells, Biolog PMM2, 3 hr",2.58
same,"Substrate use, 590 nm absorbance normalized to zero hour, 7 hr",[1],4.20
same,"590 nm absorbance normalized to zero hour (substrate use), 0 hr",[3],1.00
same,"590 nm absorbance normalized to zero hour (substrate use), 1 hr",[3],1.68
same,"590 nm absorbance normalized to zero hour (substrate use), 2 hr",[3],2.26
same,"590 nm absorbance normalized to zero hour (substrate use), 3 hr",[3],2.71
same,"590 nm absorbance normalized to zero hour (substrate use), 4 hr",[3],2.92
same,"590 nm absorbance normalized to zero hour (substrate use), 5 hr",[3],3.70
same,"590 nm absorbance normalized to zero hour (substrate use), 7 hr",[3],4.74
same,"590 nm absorbance normalized to zero hour (substrate use), 8 hr",[3],5.48
same,"590 nm absorbance normalized to zero hour (substrate use), 9 hr",[3],3.99
same,"590 nm absorbance normalized to zero hour (substrate use), 10 hr",[3],4.33
same,"590 nm absorbance normalized to zero hour (substrate use), 11 hr",[3],4.63
same,"590 nm absorbance normalized to zero hour (substrate use), 0 hr",[5],1.00
same,"590 nm absorbance normalized to zero hour (substrate use), 1 hr",[5],1.68
same,"590 nm absorbance normalized to zero hour (substrate use), 2 hr",[5],2.26
same,"590 nm absorbance normalized to zero hour (substrate use), 3 hr",[5],2.71
same,"590 nm absorbance normalized to zero hour (substrate use), 4 hr",[5],2.92
same,"590 nm absorbance normalized to zero hour (substrate use), 5 hr",[5],3.70
same,"590 nm absorbance normalized to zero hour (substrate use), 7 hr",[5],4.74
same,"590 nm absorbance normalized to zero hour (substrate use), 8 hr",[5],5.48
same,"590 nm absorbance normalized to zero hour (substrate use), 9 hr",[5],3.99
same,"590 nm absorbance normalized to zero hour (substrate use), 10 hr",[5],4.33
same,"590 nm absorbance normalized to zero hour (substrate use), 11 hr",[5],4.63
